Results published in patent publication US20260306526A1, “COMBINATION THERAPY FOR BACTERIAL INFECTIONS COMPRISING ZINC-CHELATOR, BETA-LACTAM ANTIBIOTIC AND SERINE BETA-LACTAMASE INHIBITOR” (priority 2023, published 2026).
Where “and” joins values, the source holds several entries; their conditions need not be identical. Equal values may be shown once.

Test system: Pseudomonas aeruginosa ST773
Experiment: MIC determination, fixed concentration of sBLI (Examples 19-26)
Assay type: cell-based
Conditions: NDM-1, OXA-395, PDC-16, caMHB
Description: Antimicrobial susceptibility testing (AST) by broth microdilution (MIC determination) was performed according to The European Committee on Antimicrobial Susceptibility Testing (EUCAST) guidelines (see Reading guide for broth microdilution Version 5.0, 2024: https://www.eucast.org).
For combinations containing meropenem as the antibiotic, Sensititre™ FINMER meropenem 64-0.03 μg/mL plates (Thermo Fischer Diagnostics custom plates; YFINMER) were used in most of the experiments. For other antibiotics (and for meropenem whenever a higher start concentration than 64 μg/mL was needed) sterile clear round bottom polystyrene (non-treated) 96-well microplates (Corning 3788) were used for making serial two-fold dilutions of the antibiotic in cation-adjusted Mueller Hinton II broth (caMHB; Thermo Scientific, T3462, containing 29.4 μM Zn^2+ or MILLIPORE, 90922-500G, containing 5.6 μM Zn^2+), across the columns of the microtiter plate (128-0.06 μg/mL; columns 1-12).
The checkerboard plates were all modified by adding a serine β-lactamase inhibitor (sBLI) at a fixed concentration of 16 μg/mL. Additionally, the zinc chelator was added at various fixed concentrations. Samples were mixed so that all plates contained a control containing antibiotic alone (no sBLI, no zinc chelator), a sample containing antibiotic and sBLI (double combination; no zinc chelator), and a sample containing antibiotic, sBLI and zinc chelator (triple combination). All test wells used in each plate contained growth medium (caMHB), and inoculated bacteria at a final inoculum between 3-7×10^5 CFU/mL. […] Synergy for the triple combination (antibiotic, sBLI, and zinc chelator) was defined as when the MIC in any of the rows containing the zinc chelator in combination with antibiotic and sBLI (triple combination), was lower than for antibiotic alone and lower than for the antibiotic and sBLI double combination.
(§1) An X in rows 1~4 in the table indicates growth of the bacterial inoculum, while a blank cell indicates no growth. Concentrations (μg/mL) of MEM are given in row 0. TAZ and the zinc chelator were added in fixed concentrations (TAZ at 16 μg/mL in rows 2-4, zinc chelator at 16 μg/mL in row 3 and at 8 μg/mL in row 4). As a control, the effect of MEM alone was tested (row 1). All wells contained bacterial growth medium (caMHB, 29.4 μM Zn^2+) and were inoculated with the test bacterium. The grey cells indicate the meropenem MIC.
as §1, with “AZT” for “MEM”, “AVI” for “TAZ”, “(AVI” for “(TAZ”, “aztreonam” for “meropenem”
Two technical replicates were performed for each sample. An X in rows 1-8 in the table indicates growth of the bacterial inoculum, while a blank cell indicates no growth. Concentrations (μg/mL) of PIP are given in row 0. AVI and the zinc chelator were added in fixed concentrations (AVI at 16 μg/mL in rows 3-8, zinc chelator at 16 μg/mL in rows 5-6 and at 8 μg/mL in rows 7-8). As a control, the effect of PIP alone was tested (rows 1-2). All wells contained bacterial growth medium (caMHB, 29.4 μM Zn^2+) and were inoculated with the test bacterium. The grey cells indicate the piperacillin MIC.
as §1, with “PIP” for “MEM”, “All wells contained bacterial growth medium (caMHB, 29.4 μM Zn^2+) and were inoculated with the test bacterium. The grey cells indicate the meropenem MIC.” left out

CN(C[C@H](O)[C@@H](O)[C@H](O)[C@H](O)CO)C(=O)c1ccc(CN(Cc2ccccn2)Cc2ccccn2)nc1 [zinc chelator]
Synergy with the zinc chelator observed at concentration (Example 19, with MEM and TAZ 16 μg/mL, 29.4 μM Zn2+): 16 µg/mL
Synergy with the zinc chelator observed at concentration (Example 20, with AZT and AVI 16 μg/mL, 29.4 μM Zn2+): 16 µg/mL
Synergy with the zinc chelator observed at concentration (Example 21, with PIP and AVI 16 μg/mL, 29.4 μM Zn2+, 8 μg/mL for one replicate only, other replicate not interpretable): 16 µg/mL and 8 µg/mL
Synergy with the zinc chelator observed at concentration (Example 22, with PIP and TAZ 16 μg/mL, 29.4 μM Zn2+): 16 µg/mL
Synergy with the zinc chelator observed at concentration (Example 24, with MEM and TAZ 16 μg/mL, 5.6 μM Zn2+, 16 and 4 μg/ml not interpretable according to EUCAST): 8 µg/mL
Synergy with the zinc chelator observed at concentration (Example 26, with PIP and TAZ 16 μg/mL, 5.6 μM Zn2+, 16 μg/mL not interpretable according to EUCAST): 8 µg/mL and 4 µg/mL
